Reference: patent US20240148821A1, “PHARMACEUTICAL USE OF CYCLIC PEPTIDE COMPOUND” (CHUGAI SEIYAKU KABUSHIKI KAISHA, priority 2021, published 2024)
Numbered stars: 1 amine (or outer) side, 2 acyl side, 3 side chain; on linkers, the order of the positions; unused ones are H or OH. Bridge positions count the residues as written; N and C are the ends. Square brackets hold non-standard residues; d marks the D form. Peptide text beside a SMILES is read from it. * marks the point of attachment. hPhe(3-Cl-4-CF3) = N[C@@H](CCc1ccc(C(F)(F)F)c(Cl)c1)C(=O)O; hPhe(3-F,4-CF3) = N[C@@H](CCc1ccc(C(F)(F)F)c(F)c1)C(=O)O; NMePhe(4-CF3) = CN[C@@H](Cc1ccc(C(F)(F)F)cc1)C(=O)O; NEtPhe(4-Me) = CCN[C@@H](Cc1ccc(C)cc1)C(=O)O; NMePhe(4-Cl) = CN[C@@H](Cc1ccc(Cl)cc1)C(=O)O; NMePhe(4-Me) = CN[C@@H](Cc1ccc(C)cc1)C(=O)O; NMedβ3hAla = C[C@H](CC(=O)[*:2])N(C)[*:1]; NMeGly(cPent) = CN[C@H](C(=O)O)C1CCCC1; NMeCha = CN[C@@H](CC1CCCCC1)C(=O)O; Hyp = O=C(O)[C@@H]1C[C@@H](O)CN1; NMeAhp(2) = CCCCC[C@H](NC)C(=O)O; NMeCba = CN[C@@H](CC1CCC1)C(=O)O; NMeChg = CN[C@H](C(=O)O)C1CCCCC1; NMeF = CN[C@@H](Cc1ccccc1)C(=O)O; NMeD = CN[C@@H](CC(=O)O)C(=O)O; NMeL = CN[C@@H](CC(C)C)C(=O)O; NMeAc5c = CNC1(C(=O)O)CCCC1; NMeV = CN[C@H](C(=O)O)C(C)C; d(β3hA) = C[C@@H](N)CC(=O)O; NMeAbu = CC[C@H](NC)C(=O)O; NMeA = CN[C@@H](C)C(=O)O; Piperidide = C1CCN(*)CC1; dNMeA = CN[C@H](C)C(=O)O; Ac5c = NC1(C(=O)O)CCCC1; Aze = O=C(O)[C@@H]1CCN1; Ac4c = NC1(C(=O)O)CCC1; Sar = CNCC(=O)O

The compounds below were run against protein-protein interaction between Kras and SOS1 (biotin-tagged human Kras loaded with GDP, His-tagged human SOS1) (Homo sapiens (Human), UniProt P01116, G12D) (assay: Protein-protein interaction inhibition between Kras and SOS1 (KrasG12D-SOS PPI) using AlphaScreen). Conditions: AlphaScreen; biotin-tagged human Kras loaded with GDP, His-tagged human SOS1; read-out: KRAS G12D-SOS PPI IC50.
Type: biochemical
For `CC[C@H](C)[C@@H]1NC(=O)[C@H](CC(C)C)N(C)C(=O)C[C@@H](C)N(C)C(=O)[C@H](CC(C)C)NC(=O)C2(CCCC2)N(C)C(=O)[C@H](CC(C)C)NC(=O)[C@H](CCc2ccc(C(F)(F)F)c(F)c2)NC(=O)CN(C)C(=O)[C@H](CC2CCCCC2)N(C)C(=O)CN(C)C(=O)CN(C)C1=O` [Compound 2] (cyclo(I[Sar][Sar][NMeCha][Sar][hPhe(3-F,4-CF3)]L[NMeAc5c]L[NMedβ3hAla][NMeL])), the IC50 was 15 nM.
Work on `CCO[C@@H]1C[C@H]2C(=O)NC3(CCC3)C(=O)N(C)[C@@H](C3CCCCC3)C(=O)N(C)[C@H](C)CC(=O)N(C)[C@@H](CC(C)C)C(=O)N[C@@H]([C@@H](C)CC)C(=O)N(C)[C@@H](C)C(=O)N3CC[C@H]3C(=O)N(CC)[C@@H](Cc3ccc(C)cc3)C(=O)N(C)CC(=O)N[C@@H](CCc3ccc(C(F)(F)F)c(Cl)c3)C(=O)N2C1` [Compound 928] (cyclo([Ac4c][NMeChg][NMedβ3hAla][NMeL]I[NMeA][Aze][NEtPhe(4-Me)][Sar][hPhe(3-Cl-4-CF3)][Hyp](Et))) yielded an IC50 of 27 nM.
With `CCCCC[C@H]1C(=O)N(C)CC(=O)N[C@@H](CCc2ccc(C(F)(F)F)c(Cl)c2)C(=O)N2CCC[C@H]2C(=O)NC2(CCCC2)C(=O)N(C)[C@@H](C(C)C)C(=O)N(C)[C@H](C(=O)N2CCCCC2)CC(=O)N(C)[C@@H](CC(C)C)C(=O)N[C@@H]([C@@H](C)CC)C(=O)N(C)[C@@H](C)C(=O)N2CC[C@H]2C(=O)N1C` [Compound 1854] ([NMeL]I[NMeA][Aze][NMeAhp(2)][Sar][hPhe(3-Cl-4-CF3)]P[Ac5c][NMeV][NMeD]-Piperidide; lactam N-11) the IC50 was 5.5 nM.
Compound `CC[C@H](C)[C@@H]1NC(=O)[C@H](C)N(C)C(=O)C[C@@H](C)NC(=O)[C@H](C2CCCC2)N(C)C(=O)C2(CCCC2)NC(=O)[C@@H]2CCCN2C(=O)[C@H](CCc2ccc(C(F)(F)F)c(Cl)c2)NC(=O)CN(C)C(=O)[C@H](Cc2ccc(C(F)(F)F)cc2)N(C)C(=O)[C@@H]2CCN2C(=O)[C@H](C)N(C)C1=O` [Compound 1512] (cyclo([Ac5c][NMeGly(cPent)][d(β3hA)][NMeA]I[NMeA][Aze][NMePhe(4-CF3)][Sar][hPhe(3-Cl-4-CF3)]P)) has an IC50 of 1.2 nM.
Compound `CC[C@H](C)[C@@H]1NC(=O)[C@H](CC(C)C)N(C)C(=O)C[C@@H](C(=O)N2CCCCC2)N(C)C(=O)[C@H](C(C)C)N(C)C(=O)C2(CCCC2)NC(=O)[C@@H]2CCCN2C(=O)[C@H](CCc2ccc(C(F)(F)F)c(Cl)c2)NC(=O)CN(C)C(=O)[C@H](CC2CCCCC2)N(C)C(=O)[C@@H]2CCN2C(=O)[C@H](CC(C)C)N(C)C1=O` [Compound 1558] ([NMeL]I[NMeL][Aze][NMeCha][Sar][hPhe(3-Cl-4-CF3)]P[Ac5c][NMeV][NMeD]-Piperidide; lactam N-11) has an IC50 of 71 nM.
In the case of `CC[C@H](C)[C@@H]1NC(=O)[C@H](C)N(C)C(=O)C[C@@H](C)NC(=O)[C@H](C(C)C)N(C)C(=O)C2(CCCC2)NC(=O)[C@@H]2CCCN2C(=O)[C@H](CCc2ccc(C(F)(F)F)c(Cl)c2)NC(=O)[C@@H](C)N(C)C(=O)[C@H](CC2CCCCC2)N(C)C(=O)[C@@H]2CCN2C(=O)[C@H](CC)N(C)C1=O` [Compound 2012] (cyclo([Ac5c][NMeV][d(β3hA)][NMeA]I[NMeAbu][Aze][NMeCha][dNMeA][hPhe(3-Cl-4-CF3)]P)), the IC50 is reported as 200 nM.
For `CC[C@H](C)[C@@H]1NC(=O)[C@H](CC(C)C)N(C)C(=O)C[C@@H](C(=O)N2CCCCC2)N(C)C(=O)[C@H](C2CCCCC2)N(C)C(=O)C2(CCCC2)NC(=O)[C@@H]2CCCN2C(=O)[C@H](CCc2ccc(C(F)(F)F)c(Cl)c2)NC(=O)CN(C)C(=O)[C@H](CC2CCCCC2)N(C)C(=O)[C@@H]2CCN2C(=O)[C@H](C)N(C)C1=O` [Compound 249] ([NMeL]I[NMeA][Aze][NMeCha][Sar][hPhe(3-Cl-4-CF3)]P[Ac5c][NMeChg][NMeD]-Piperidide; lactam N-11), the IC50 was 1.6 nM.
`CC[C@H](C)[C@@H]1NC(=O)[C@H](C)N(C)C(=O)C[C@@H](C)NC(=O)[C@H](CC(C)C)N(C)C(=O)[C@H](Cc2ccccc2)N(C)C(=O)[C@H](CC(C)C)NC(=O)[C@H](CCc2ccc(C(F)(F)F)c(Cl)c2)NC(=O)CN(C)C(=O)[C@H](Cc2ccc(Cl)cc2)N(C)C(=O)CN(C)C(=O)CN(C)C1=O` [Compound 2088] (cyclo(I[Sar][Sar][NMePhe(4-Cl)][Sar][hPhe(3-Cl-4-CF3)]L[NMeF][NMeL][d(β3hA)][NMeA])) showed an IC50 of 30 nM.
For `CC[C@H](C)[C@@H]1NC(=O)[C@H](CC(C)C)N(C)C(=O)C[C@@H](C(=O)N2CCCCC2)N(C)C(=O)[C@H](C(C)C)N(C)C(=O)C2(CCCC2)NC(=O)[C@@H]2CCCN2C(=O)[C@H](CCc2ccc(C(F)(F)F)c(Cl)c2)NC(=O)CN(C)C(=O)[C@H](CC2CCCCC2)N(C)C(=O)[C@@H]2CCN2C(=O)[C@H](CC2CCC2)N(C)C1=O` [Compound 1603] ([NMeL]I[NMeCba][Aze][NMeCha][Sar][hPhe(3-Cl-4-CF3)]P[Ac5c][NMeV][NMeD]-Piperidide; lactam N-11), the IC50 was 94 nM.
For `CC[C@H](C)[C@@H]1NC(=O)[C@H](CC(C)C)N(C)C(=O)C[C@@H](C(=O)N2CCCCC2)N(C)C(=O)[C@H](C(C)C)N(C)C(=O)C2(CCCC2)NC(=O)[C@@H]2CCCN2C(=O)[C@H](CCc2ccc(C(F)(F)F)c(Cl)c2)NC(=O)CN(C)C(=O)[C@H](Cc2ccc(C)cc2)N(C)C(=O)[C@@H]2CCN2C(=O)[C@H](C)N(C)C1=O` [Compound 1828] ([NMeL]I[NMeA][Aze][NMePhe(4-Me)][Sar][hPhe(3-Cl-4-CF3)]P[Ac5c][NMeV][NMeD]-Piperidide; lactam N-11), the IC50 was 2.7 nM.
